# Columns and labels:
# Format in all cases: in vivo, human
# [1] = BHV3000-201 open label long-term safety study, interim analysis
# Description: Clinical Trial—BHV3000-201: Open Label Safety Study in Acute Treatment of Migraine (ClinicalTrials.gov Identifier: NCT 03266588)
# A phase 2/3 clinical study is conducted with about 2000 participants, as follows.
# The purpose of this study is to evaluate safety and tolerability of BHV3000 (rimegepant).
# Study Design • Study Type: Interventional (Clinical Trial) • Estimated Enrollment: 2000 participants • Intervention Model: Single Group Assignment • Masking: None (Open Label) • Primary Purpose: Treatment • Official Title: A Multicenter, Open Label Long-Term Safety Study of BHV3000 in the Acute Treatment of Migraine • Actual Study Start Date: Aug. 30, 2017 • Estimated Primary Completion Date: July 2019 • Estimated Study Completion Date: July 2019
# 1. To assess the safety and tolerability of rimegepant (BHV-3000) by measuring the frequency and severity of adverse events and discontinuations due to adverse events [Time Frame: 52 weeks]Number of subjects with treatment-emergent adverse events as assessed through laboratory tests, ECGs, physical exam findings (safety and tolerability)
# 1. ALT or AST >3×ULN with total bilirubin >2×ULN [Time Frame: 52 weeks]elevated liver function tests
# 2. hepatic related adverse events and hepatic related adverse events that lead to discontinuation [Time Frame: 52 weeks]adverse events related to liver
# Patients were allowed to treat migraine attacks of all severities (mild to severe) up to once daily for a full year. The initial results for hepatic safety and tolerability of rimegepant 75 mg in study participants is based upon review of both adverse events and regularly scheduled liver function tests. Interim hepatic data were reviewed by an external and independent panel of liver experts. […] In the aggregate, it was noted that compared to migraine trials with drugs other than rimegepant, there was a very low incidence of overall elevations of liver function test abnormalities in rimegepant treated patients (1.0% incidence of serum ALT or AST >3x ULN). Subjects will continue to participate in Study 201 with additional data analyses to be submitted in the NDA and required 120-day safety updates.
# [2] = system: patients with migraine; assay: BHV3000-201: reduction in headache days (migraines) per month, treatment vs observation phase
# Source text: Study Design • Study Type: Interventional (Clinical Trial) • Estimated Enrollment: 2000 participants • Intervention Model: Single Group Assignment • Masking: None (Open Label) • Primary Purpose: Treatment • Official Title: A Multicenter, Open Label Long-Term Safety Study of BHV3000 in the Acute Treatment of Migraine • Actual Study Start Date: Aug. 30, 2017 • Estimated Primary Completion Date: July 2019 • Estimated Study Completion Date: July 2019 In addition to the interim safety analysis, data from subjects was assessed to determine reductions in the number of headache days per month.
# [3] = system: subjects with Acute Migraines; assay: BHV3000-302 Phase 3 trial, acute treatment of migraine: efficacy; conditions: Study 302; P<0.0001
# Description: Clinical Trial—BHV3000-302: Phase 3: Double-Blind, Randomized, Placebo-Controlled, Safety and Efficacy Trial of BHV-3000 (Rimegepant) for the Acute Treatment of Migraine (ClinicalTrials.gov Identifier: NCT03237845) • A phase 3 clinical study was conducted with 1503 participants, as follows. […] Pain Freedom of rimegepant (75 mg tablet) compared with placebo in the acute treatment of migraine will be measured using the number of evaluable subjects that report no pain at 2 hours post-dose. [Time Frame: Two hours post dose] • Pain will be measured on a 4 point Likert scale (0=none, 1=mild, 2=moderate, 3=severe) • 2. Freedom from the most bothersome symptom (MBS) of rimegepant (75 mg tablet) compared with placebo will be measured using the number of evaluable subjects that report the absence of their MBS at 2 hours post-dose. […] The MBS (nausea, phonophobia or photophobia) will measured using a binary scale (0=absent, 1=present). […] [Time Frame: 2 hours-24 hours post-dose] • Sustained Pain Freedom as measured by a 4 point numeric rating scale (None, Mild, Moderate, Severe) • 2. […] [Time Frame: 2 hours post-dose] • Pain Relief as measured by a 4 point numeric rating scale (None, Mild, Moderate, Severe) • 5. […] [Time Frame: 2 hours-48 hours post-dose] • Sustained Pain Freedom as measured by a 4 point numeric rating scale (None, Mild, Moderate, Severe) • 8. […]
smiles,measurement,setting,value
"N[C@@H]1c2cccnc2[C@H](OC(=O)N2CCC(n3c(=O)[nH]c4ncccc43)CC2)CC[C@H]1c1cccc(F)c1F [Rimegepant, [(55,65,9R)-5-amino-6-(2,3-difluorophenyl)-6,7,8,9-tetrahydro-5H-cyclohepta[b]pyridin-9-yl]4-(2-oxo-3H-imidazo[4,5-b]pyridin-1-yl)piperidine-1-carboxylate]",safety and tolerability of long-term dosing,[1]; Study 201 interim analysis,consistent with the profile observed in phase 1- 3 studies
same,incidence of serum ALT or AST >3x ULN,"[1]; Study 201 interim, 75 mg up to once daily",1.0%
same,liver safety signal,"[1]; Study 201 interim, incl. near-daily dosing (>=15 doses/month)",no liver safety signal detected
same,liver cases assessed as probably related to study drug,"[1]; Study 201 interim, independent liver panel",no liver cases
same,"subjects with > = 20.0% decrease, number","[2]; Overall, n 1731",683
same,"subjects with > = 25.0% decrease, number","[2]; Overall, n 1731",602
same,"subjects with > = 30.0% decrease, number","[2]; Overall, n 1731",523
same,"subjects with > = 35.0% decrease, number","[2]; Overall, n 1731",442
same,"subjects with > = 40.0% decrease, number","[2]; Overall, n 1731",362
same,"subjects with > = 45.0% decrease, number","[2]; Overall, n 1731",287
same,"subjects with > = 50.0% decrease, number","[2]; Overall, n 1731",226
same,onset of reductions in the mean number of headache days per month,[2]; Study 201,as early as the first month
same,patients achieving normal function at 2 hours (functional disability) versus placebo,[3],greater proportion

# — patent publication US20210000814A1, “RIMEGEPANT FOR CGRP RELATED DISORDERS” (Biohaven Pharmaceutical Holding Company Ltd., priority 2018, published 2021)
